Measurements: patent US9511022B2, “Suspension and cake composition containing carbostyryl derivative and silicone oil and/or silicone oil derivative” (Otsuka Pharmaceutical Co., Ltd., priority 2010, dated 2016)

Assays:
[1] = Mean particle size of Compound (II)/silicone oil suspension by laser diffraction, with and without sonication; type: physicochemical; settings: 20 weight % Compound (II) suspension after wet pulverization, before silicone oil addition
Protocol: Suspensions containing Compound (II) and silicone oil in the contents presented in Table 4 were prepared according to the following method. A 0.1% or 1% silicone oil emulsion prepared by diluting Dow Corning® 365, 35% Dimethicone NF Emulsion (produced by Dow Corning Corporation) in purified water was used as the silicone oil. A sodium carboxymethylcellulose/mannitol/sodium dihydrogenphosphate solution was used as a dispersion medium. The solids content of Compound (II) was adjusted to 10 to 20 weight %. No foaming occurred in any of the suspensions.
An aqueous suspension (200 mg Compound (II)/1.1 to 2 mL) containing Compound (II) and silicone oil was prepared as follows. Note that the Compound (II) suspension was prepared in the same manner as in Example 1 except that the pulverizing time using a high-pressure homogenizer was shortened.
A Compound (II) bulk powder was suspended in a dispersion medium at 20 weight %. […]
(§1) The mean particle size of the suspension prepared as described above was measured using a SALD-3000J or SALD-3100 Laser Diffraction Particle Size Analyzer (produced by Shimadzu Corporation). […]
(§2) Separately, the suspension was sonicated for 1 min with an ultrasonic wave generator attached to the particle size analyzer, and the mean particle size of the treated suspension was measured as described above.

[2] = Mean particle size of aripiprazole/silicone oil suspension by laser diffraction, with and without sonication; type: physicochemical; settings: 20 weight % aripiprazole suspension after wet pulverization, before silicone oil addition
Protocol: Suspensions containing aripiprazole and silicone oil in the contents presented in Table 1 were prepared according to the following method. A 0.1% or 1% silicone oil emulsion prepared by diluting Dow Corning® 365, 35% Dimethicone NF Emulsion (produced by Dow Corning Corporation) in purified water was used as the silicone oil. A sodium carboxymethylcellulose/mannitol/sodium dihydrogenphosphate solution was used as a dispersion medium. The solids content of the aripiprazole was adjusted to about 10 to 20 weight %. No foaming occurred in any of the suspensions.
An aqueous suspension (200 mg aripiprazole/1.1 to 2 mL) containing aripiprazole (IM Depot) and silicone oil was prepared as follows.
Note that the aripiprazole suspension was prepared according to a wet pulverization method that uses a high-pressure homogenizer (see Japanese Patent Application No. 2007-200088 filed by Otsuka Pharmaceutical Co., Ltd.).
An aripiprazole hydrate bulk powder was suspended in a dispersion medium at 20 weight %. […]
as §1, §2

Structure (SMILES) | Mean primary particle size of the resulting suspension [1] [μm] | Mean primary particle size of the resulting suspension [2] [μm]
O=c1ccc2ccc(OCCCCN3CCN(c4cccc5sccc45)CC3)cc2[nH]1 [Compound (II), 7-[4-(4-benzo[b]thiophen-4-yl-piperazin-1-yl)butoxy]-1H-quinolin-2-one] | 5.3 | –
O=C1CCc2ccc(OCCCCN3CCN(c4cccc(Cl)c4Cl)CC3)cc2N1 [aripiprazole, Aripiprazole] | – | 2.0
